Measured values reported in patent publication US20120258976A1, “CRYSTALLINE PYRROLO[2,3-D]PYRIMIDINE COMPOUNDS” (Pfizer Inc., priority 2011, published 2012).

Assay: Tofacitinib stability in PEG-based ointment formulations after storage at 40° C.
Type: physicochemical
Source text: Topical formulations contain 3-((3R,4R)-4-methyl-3-[methyl-(7H-pyrrolo[2,3-d]pyrimidin-4-yl)amino]-piperidin-1-yl)-3-oxopropionitrile in therapeutically effective amounts that can be given in daily or twice daily doses to patients in need. These amounts range from about 0.1% to about 5.0% (w/v), more preferably, from about 0.1% to about 3.0%, more preferably still, from about 0.5% to about 2.3%, and, most preferably, about 2.0% (w/v). Among other excipients which enhance the stability of these formulations include aldehyde scavengers, such as glycerine and propylene glycol, and antioxidants, such as butyl hydroxyanisole (BHA), butyl hydroxytoluene (BHT), propyl gallate, ascorbic acid (Vitamin C), polyphenols, tocopherols (Vitamin E), and their derivatives. Preferably, PEG-based ointment formulations containing at least 30% polyethylene glycol, tofacifinib and one or more penetration enhancers and additional pharmaceutically acceptable excipients forming a stable formulation such that the level of total degradants is no more than 7% when the product is stored at 40° C. for 4 weeks. More preferably, addition of aldehyde scavengers and antioxidants into formulations Ointment 1 (A) and Ointment 2 (C) stabilized the polyethylene glycol containing ointment formulations such that the level of total degradants is no more than 5% when the product is stored at 40° C. for 4 weeks.

C[C@@H]1CCN(C(=O)CC#N)C[C@@H]1N(C)c1ncnc2[nH]ccc12 [tofacitinib, 3-((3R,4R)-4-Methyl-3-[methyl-(7H-pyrrolo[2,3-d]pyrimidin-4-yl)-amino]-piperidin-1-yl)-3-oxopropionitrile]
Stability of tofacitinib in the presence of polyethylene glycol (PEG): poor stability
